Results on 18 compounds are retold here after patent US8106055B2, “Substituted amide compounds” (Gruenenthal GmbH, priority 2007, dated 2012).

As a reminder, the inhibition is the change of the read-out against control, counted positive when it falls.

The target in assay [1] is T1, serotonin (5-HT) reuptake (Rattus norvegicus, UniProt P31652).
T1 construct: synaptosomes are freshly isolated from areas of the rat brain; from tissue; host or cells: rat brain synaptosomes (P2 fraction)
In words: Inhibition of serotonin (5HT) reuptake in synaptosomes from rat brain. The assay is classed as biochemical. To be noted: test concentration of 10 μM; read-out: 5-HT (inhibition of reuptake of serotonin, % inhibition). The method, boiled down: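 Freshly isolated rat brain synaptosomes (P2 fraction) used for 5-HT reuptake. Test compound at 10 μM, activity given as % inhibition.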

Assay [2] has as its target T2, human bradykinin 1 receptor (B1R) (Homo sapiens, UniProt P46663).
T2 construct: expressed in transfected cells; host or cells: CHO K1 cells
T2 sequence (P46663 1-353): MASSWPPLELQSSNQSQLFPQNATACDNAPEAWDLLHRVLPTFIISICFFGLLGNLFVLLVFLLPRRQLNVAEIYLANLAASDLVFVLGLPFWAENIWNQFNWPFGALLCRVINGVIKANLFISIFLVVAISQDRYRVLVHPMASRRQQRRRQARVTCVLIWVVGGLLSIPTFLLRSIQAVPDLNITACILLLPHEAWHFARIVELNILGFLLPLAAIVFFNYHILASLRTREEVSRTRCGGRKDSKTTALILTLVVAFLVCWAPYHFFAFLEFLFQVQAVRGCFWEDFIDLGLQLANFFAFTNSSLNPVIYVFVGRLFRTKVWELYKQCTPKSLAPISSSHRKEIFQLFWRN
In words: Functional investigation on the human bradykinin 1 receptor (B1R), Ca2+ FLIPR assay in CHO K1 hB1R cells. The assay is classed as cell-based. To be noted: CHO-K1, B1R antagonism human; test substance 10 μM; Ca2+ FLIPR, CHO K1 hB1R cells; read-out: B1R Ant. h [10 μM] % Inhibition. Summed up:
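Stably transfected CHO K1 cells loaded with Fluo-4; FLIPR Ca2+ fluorescence peak (ex 488/em 540 nm). Compound added first (agonism vs Lys-Des-Arg9-bradykinin ≥50 nM human, Des-Arg9-bradykinin 10 μM rat), then after 10-20 min agonist at EC80; antagonism as % inhibition, IC50 from concentration series, n=2-3, N≥2.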

Each structure is given as a SMILES string.

T1 sequence (P31652 whole entry): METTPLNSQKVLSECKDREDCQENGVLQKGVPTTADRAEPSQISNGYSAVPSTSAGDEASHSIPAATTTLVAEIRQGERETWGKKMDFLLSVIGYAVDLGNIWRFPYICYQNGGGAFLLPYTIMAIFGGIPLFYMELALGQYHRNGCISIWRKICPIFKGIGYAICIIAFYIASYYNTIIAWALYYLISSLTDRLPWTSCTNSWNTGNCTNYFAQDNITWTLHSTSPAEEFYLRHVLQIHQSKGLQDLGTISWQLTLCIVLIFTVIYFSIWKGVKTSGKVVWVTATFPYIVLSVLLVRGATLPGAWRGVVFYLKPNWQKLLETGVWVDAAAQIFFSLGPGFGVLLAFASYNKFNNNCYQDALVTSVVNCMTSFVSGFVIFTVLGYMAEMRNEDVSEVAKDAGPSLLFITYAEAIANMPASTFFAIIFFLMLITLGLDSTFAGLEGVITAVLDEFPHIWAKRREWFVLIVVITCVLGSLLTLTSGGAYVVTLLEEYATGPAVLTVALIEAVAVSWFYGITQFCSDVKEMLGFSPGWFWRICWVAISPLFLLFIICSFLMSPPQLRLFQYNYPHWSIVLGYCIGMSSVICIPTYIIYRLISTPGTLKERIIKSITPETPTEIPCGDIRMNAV

Regarding `CN(C)C(c1cccs1)C1CCC(CCNC(=O)COC2CCN(S(=O)(=O)c3ccc(F)cc3)C2)CC1` (stereo not drawn) [Example 138, N-(2-(4-((dimethylamino)(thiophen-2-yl)methyl)cyclohexyl)ethyl)-2-(1-(4-fluorophenylsulfonyl)pyrrolidin-3-yloxy)acetamide], the figures for the inhibition at 10 µM in assay [1] and in assay [2] were 98% and 2%, respectively.

In the case of `COc1cc(C)c(S(=O)(=O)N2CCCC(OCC(=O)NCC3CCC(C(c4cccc(F)c4)N(C)C)CC3)C2)c(C)c1C` (stereo not drawn) [Example 145, N-((4-((dimethylamino)(3-fluorophenyl)methyl)cyclohexyl)methyl)-2-(1-(4-methoxy-2,3,6-trimethylphenylsulfonyl)piperidin-3-yloxy)acetamide], the inhibition at 10 µM in assay [1] was determined as 91%; in assay [2], 12%.

As for `CN(C)C(c1cccs1)C1CCC(CNC(=O)COC2CCCCC2N(C)S(=O)(=O)c2ccc(Cl)c(Cl)c2)CC1` (stereo not drawn) [Example 31, 2-(2-(3,4-dichloro-N-methylphenylsulfonamido)cyclohexyloxy)-N-((4-((dimethylamino)(thiophen-2-yl)methyl)cyclohexyl)methyl)acetamide], the figures for the inhibition at 10 µM in assay [1] and in assay [2] were 88% and 10%, respectively.

For `CN(C)C(c1cccc(F)c1)C1CCC(NC(=O)COCCN(C)S(=O)(=O)c2ccc(Cl)cc2)CC1` (stereo not drawn) [Example 196, 2-(2-(4-chloro-N-methylphenylsulfonamido)ethoxy)-N-(4-((dimethylamino)(3-fluorophenyl)methyl)cyclohexyl)acetamide], the figures for the inhibition at 10 µM in assay [1] and in assay [2] were 92% and 6%, respectively.

On to `Cc1cc(C)c(S(=O)(=O)N2CCC(OCC(=O)NC3CCC(C(c4cccc(F)c4)N(C)C)CC3)C2)c(C)c1` (stereo not drawn) [Example 140, N-(4-((dimethylamino)(3-fluorophenyl)methyl)cyclohexyl)-2-(1-(mesitylsulfonyl)pyrrolidin-3-yloxy)acetamide], for which the inhibition at 10 µM was determined as 72% in assay [1] and 43% in assay [2].

Consider `Cc1ccc(S(=O)(=O)N2CCC(OCC(=O)NC3CCC(C(c4cccc(F)c4)N(C)C)CC3)C2)cc1` (stereo not drawn) [Example 167, N-(4-((dimethylamino)(3-fluorophenyl)methyl)cyclohexyl)-2-(1-tosylpyrrolidin-3-yloxy)acetamide], for which the inhibition at 10 µM is 86% in assay [1] and -12% in assay [2].

As to `COc1cc(C)c(S(=O)(=O)N2CCN(CCOCC(=O)NC3CCC(C(c4ccccc4)N(C)C)CC3)CC2)c(C)c1C` (stereo not drawn) [Example 20, N-(4-((dimethylamino)(phenyl)methyl)cyclohexyl)-2-(2-(4-(4-methoxy-2,3,6-trimethylphenylsulfonyl)piperazin-1-yl)ethoxy)acetamide], the inhibition at 10 µM was found to be 96% in assay [1] and 101% in assay [2].

Take `Cc1ccc(S(=O)(=O)N2CCC(OCC(=O)NCC3CCC(C(c4cccc(F)c4)N(C)C)CC3)C2)cc1` (stereo not drawn) [Example 185, N-((4-((dimethylamino)(3-fluorophenyl)methyl)cyclohexyl)methyl)-2-(1-tosylpyrrolidin-3-yloxy)acetamide]: the inhibition at 10 µM in assay [1] was found to be 102%; in assay [2], 9%.

Take `CN(C)C(c1cccc(F)c1)C1CCC(NC(=O)COC2CCN(S(=O)(=O)c3cccc(C(F)(F)F)c3)C2)CC1` (stereo not drawn) [Example 139, N-(4-((dimethylamino)(3-fluorophenyl)methyl)cyclohexyl)-2-(1-(3-(trifluoromethyl)phenylsulfonyl)pyrrolidin-3-yloxy)acetamide]: the inhibition at 10 µM in assay [1] is 79%; in assay [2] it was -5%.

Take `COc1cc(C)c(S(=O)(=O)N2CCC(OCC(=O)NCCC3CCC(C(c4cccs4)N(C)C)CC3)CC2)c(C)c1C` (stereo not drawn) [Example 177, N-(2-(4-((dimethylamino)(thiophen-2-yl)methyl)cyclohexyl)ethyl)-2-(1-(4-methoxy-2,3,6-trimethylphenylsulfonyl)piperidin-4-yloxy)acetamide]: the figures for the inhibition at 10 µM in assay [1] and in assay [2] were 93% and 10%, respectively.

Consider `COc1cc(C)c(S(=O)(=O)N(CCOCC(=O)NC2CCC(C(c3ccccc3)N(C)C)CC2)Cc2ccccc2)c(C)c1C` (stereo not drawn) [Example 193, 2-(2-(N-benzyl-4-methoxy-2,3,6-trimethylphenylsulfonamido)ethoxy)-N-(4-((dimethylamino) (phenyl)methyl)cyclohexyl)acetamide], for which the inhibition at 10 µM in assay [1] amounted to 92%; in assay [2], 97%.

Take `CN(C)C(c1cccc(F)c1)C1CCC(NC(=O)COC2CCN(S(=O)(=O)c3ccc(F)cc3)C2)CC1` (stereo not drawn) [Example 172, N-(4-((dimethylamino)(3-fluorophenyl)methyl)cyclohexyl)-2-(1-(4-fluorophenylsulfonyl)pyrrolidin-3-yloxy)acetamide]: the figures for the inhibition at 10 µM in assay [1] and in assay [2] were 79% and -12%, respectively.

For the compound `COc1ccc(S(=O)(=O)N(C)CCOCC(=O)NCC2CCC(C(c3ccccc3)N(C)C)CC2)cc1OC` (stereo not drawn) [Example 169, 2-(2-(3,4-dimethoxy-N-methylphenylsulfonamido)ethoxy)-N-((4-((dimethylamino)(phenyl)methyl)cyclohexyl)methyl)acetamide], the values for the inhibition at 10 µM in assay [1] and in assay [2] were 94% and -4%, respectively.

`CN(C)C(c1cccc(F)c1)C1CCC(NC(=O)COCCN(Cc2ccccc2)S(=O)(=O)c2ccccc2)CC1` (stereo not drawn) [Example 175, 2-(2-(N-benzylphenylsulfonamido)ethoxy)-N-(4-((dimethylamino)(3-fluorophenyl)methyl)cyclohexyl)acetamide]: the inhibition at 10 µM in assay [1] is 97%; in assay [2], -6%.

For `CN(C)C(c1ccccc1)C1CCC(NC(=O)COCCN(C)S(=O)(=O)c2c(F)c(F)c(F)c(F)c2F)CC1` (stereo not drawn) [Example 136, N-(4-((dimethylamino)(phenyl)methyl)cyclohexyl)-2-(2-(2,3,4,5,6-pentafluoro-N-methylphenylsulfonamido)ethoxy)acetamide], the inhibition at 10 µM came to 83% in assay [1] and 87% in assay [2].

As to `CN(C)C(c1cccs1)C1CCC(NC(=O)COCCN(C)S(=O)(=O)c2cccc(C(F)(F)F)c2)CC1` (stereo not drawn) [Example 152, N-(4-((dimethylamino)(thiophen-2-yl)methyl)cyclohexyl)-2-(2-(N-methyl-3-(trifluoromethyl)phenylsulfonamido)ethoxy)acetamide], the figures for the inhibition at 10 µM in assay [1] and in assay [2] were 87% and 16%, respectively.

For `CN(C)C(c1cccc(F)c1)C1CCC(NC(=O)COCCN(C)S(=O)(=O)c2c(Cl)cccc2Cl)CC1` (stereo not drawn) [Example 171, 2-(2-(2,6-dichloro-N-methylphenylsulfonamido)ethoxy)-N-(4-((dimethylamino)(3-fluorophenyl)methyl)cyclohexyl)acetamide], the inhibition at 10 µM worked out at 78% in assay [1] and 68% in assay [2].

Regarding `COc1ccc(S(=O)(=O)N2CCC(OCC(=O)NC3CCC(C(c4cccs4)N(C)C)CC3)C2)cc1OC` (stereo not drawn) [Example 155, 2-(1-(3,4-dimethoxyphenylsulfonyl)pyrrolidin-3-yloxy)-N-(4-((dimethylamino)(thiophen-2-yl)methyl)cyclohexyl)acetamide], the inhibition at 10 µM is 87% in assay [1] and -8% in assay [2].
